Tests used:
[1] = test system: intestinal villi; experiment: Morphological analysis of intestinal villi after ex vivo ischemia (Van Gieson/hematoxylin); set-up: species or system rat; conditions: jejunum and ileum after 2 hrs ex vivo ischemia
Description: After the two-hour ischemic incubation, intestinal pieces from segments 2 (jejunum) and 7 (ileum) were embedded in O.C.T. (Tissue Tek, Torrance, Calif.) and snap frozen in t-methyl butane in liquid nitrogen. Intestine samples from segments 2 and 7 (for protease analysis) and segment 7 (for immunoblots) were snap frozen and stored for subsequent homogenization. Morphological Analysis and TUNEL Labeling—Intestinal segments frozen in O.C.T. were cut into 5 μm sections. Sections were fixed using ice-cold methanol (8 min at −20° C.) and immediately washed four times in distilled water. Nuclei were stained by incubating sections in freshly mixed Weigert's Iron Hematoxylin A and B (Electron Microscopy Science, Hatfield, Pa.) (10 min) followed by rinsing thoroughly with water. Collagen fibers were labeled by incubating (2 min) in Van Gieson's Solution (Electron Microscopy Science). Prior to mounting, all slides were dehydrated (70, 95, 100% ethanol) and cleaned with xylene. After air-drying overnight, sections were mounted using Hard Set Mounting Media (Vector Laboratories, Burlingame, Calif.). Digital images were captured with a 20× objective (numerical aperture 0.5) and digitally montaged together after background subtraction. The separation of the mucosal epithelial layer was quantified for groups that had intact villi following the two hour ischemic period. Images were blinded and the distance between the mucosal epithelial layer and the lamina propria was measured over five lengths across a minimum of 6 villi.

[2] = test system: ischemic small intestine segments (jejunum to ileum); experiment: Ex vivo intestinal ischemia: transmural fluorescein transport across wall of flushed intestinal segments; set-up: species or system rat
Text: Intestinal Ischemia—Since intestinal properties are non-homogenous, the transmural permeability was investigated over the entire length of the jejunum and ileum. Due to physical constraints of the small intestine anatomy, it is not feasible to simultaneously analyze permeability from multiple segments in vivo. Therefore, an ex vivo approach similar to previously published studies was designed to measure permeability along the length of the small intestine.
A midline incision was made to expose the intestine in anesthetized rats. The proximal end of the jejunum (approximately 5 cm distal from the ligament of Treitz) was cannulated with a female luer to barb tube connector (⅛″ inner diameter). The intestine was removed and placed in saline immediately before euthanasia. In order to focus the analysis on permeability of the intestinal wall during ischemia in the absence of luminal contents (including the digestive proteases or cytotoxic factors from food), the lumen of the intestine was flushed with 40 ml saline using pulsatile pressure. Visual examination confirmed all solid contents were removed. Next, the intestine was cut into eight equal length segments (˜8 cm) sequentially ordered from the proximal jejunum (position 1) to the distal ileum (position 8). Both ends of each segment were cannulated with Female Luer to Barb tube connectors (thus allowing entry and exit points from the intestinal lumen to be sealed completely), secured with 4-0 suture, and the exterior portion of one adaptor on each segment sealed with clay.
To determine the transmural permeability of the intestine, all 8 segments from each animal were filled with a low molecular weight tracer as a sensitive measure of early barrier breakdown prior to the initiation of ischemia, fluorescein (332 Da M.W., 20 μg/ml from 5 mg/ml stock in ethanol; 0.308 osm/L; Sigma-Aldrich, St. Louis, Mo.) mixed with saline, glucose (100 mg/ml in saline; 0.550 moles/L; 0.863 osm/L, Sigma-Aldrich), the non-metabolizing glucose analog mannitol (100 mg/ml in saline; 0.550 moles/L; 0.863 osm/L), the serine protease inhibitor tranexamic acid (31 mg/ml in saline; 0.200 moles/L; 0.508 osm/L, Sigma-Aldrich), the MMP inhibitor doxycycline hyclate (1 mg/ml in saline; 1.955×10^−3 moles/L; 0.310 osm/L, Sigma-Aldrich), or the MMP inhibitor GM 6001 [38] (1 μg/ml in saline from 1 mg/ml stock in DMSO; 2.57×10^−6 moles/L; 0.308 osm/L, Millipore, Billerica, Md.). […]
Sealed segments were rinsed in saline, individually placed in 15 ml conical tubes containing 6 ml saline, and incubated at 37° C. for 2 hours to simulate ischemic conditions. […] Plates were read in a plate reader (FilterMax F-5 Multi-mode, Molecular Devices, Sunnyvale, Calif.) for concentration of fluorescein (excitation 494/emission 521) to measure diffusion across the wall of the intestine.
Permeability Analysis—To determine the fluorescein transport across the ischemic intestinal wall, the fluorescence at time 0 was subtracted from fluorescence values at later time points to correct for background, and fluorescence values were corrected to account for the volume reduction due to sampling during the experiment. The RFU measurements were converted to equivalent moles by using the linear relationship between concentration and fluorescein fluorescence (not shown, R^2=0.999). The transport of fluorescein across the wall (measured in moles, per time) was computed as the change in fluorescence over a 30 min interval divided by 30 min.

[3] = test system: ~20-kDa serine proteases; experiment: Gelatin gel zymography of plasma, lung and intestine samples renatured with serine protease inhibitors; type: biochemical, rat; conditions: 75 μmol/L ANGD or 100 lmol/L TLCK in renaturing and developing buffers, lung, intestine samples
Description: Protease Activity—Gelatin gel zymography was completed as previously described. When present, the luminal contents from the jejunal tissue were discarded by gentle compression of the intestine before homogenization to prevent excess digestion of the gelatin substrate in the gels by luminal proteases. Tissues from shocked animals (flushed and nonflushed) as well as controls were rinsed and blotted dry before weighing. Protein concentration was determined using the BCA kit before mixing each sample in a 1:1 ratio with loading dye (containing sodiumdodecyl sulfate (SDS), but no reducing agent). Two microgram protein/lane of intestine or 20 μg protein/lane of lung homogenates were loaded. Plasma (0.5 μL) was mixed with 2 μL loading dye and loaded into each lane.
Samples were separated by gel electrophoresis in 11% sodiumdodecyl sulfate polyacrylamide gel electrophoresis (SDS-PAGE) gelatin impregnated gels. Upon separation, gel proteins were renatured in 2.5% Triton-X 100 in water (49, 15 min) before incubation at 37° C. overnight in developing buffer (0.05 mol/L Tris base, 0.2 mol/L NaCl, 4 μmol/L ZnCl2, 5 mmol/L CaCl2.2H2O). Gels were then fixed and stained (50% methanol, 10% acetic acid, 40% water, and 0.25% Coomassie blue solution) for 3 h, destained in water to achieve appropriate contrast before digital analysis (ImageJ).
To confirm that the ˜20-kDa bands were serine proteases, gels were renatured and developed in the aforementioned buffers with the addition of either 75 μmol/L serine protease inhibitor ANGD (nafamostat mesilate) or 100 lmol/L trypsin inhibitor tosyl-lysine chloromethyl ketone (TLCK) and compared to duplicate gels that were subject to the standard renaturation procedure.

[4] = test system: experimental shock; conditions: cited from earlier work
[5] = test system: MMP-1/9; experiment: Plasma MMP-1/9 activity by plate zymography after hemorrhagic shock; type: in vivo, rat; conditions: compared to the HS+SAL animals
Description: Enzyme and Protease Activity Measurements—All microplate assays were performed in duplicate in 96 well black-sided flat bottom polystyrene plates (Corning, New York, N.Y.) and measured in a microplate reader (FilterMax F-5 Multi-mode, Molecular Devices, Sunnyvale, Calif.). Plasma MMP-1/9 activity was also detected by plate zymography using a protease specific substrate (American Peptide Company, Sunnyvale, Calif.).

[6] = test system: 20 kDa serine proteases; experiment: Gelatin gel zymography of pre-ischemic intestinal homogenates renatured with inhibitor: serine protease bands; type: biochemical, rat; conditions: inhibitor in renaturing and developing buffer: tranexamic acid 20 mM, doxycycline 1 mg/ml, GM-6001 1 ug/ml
Description: Gelatin Gel Zymography—Segments 2 and 7 from pre-ischemic intestines were homogenized (0.1 g tissue/ml homogenization buffer; PBS pH 7.4 with 0.5% hexadecyltrimethyl bromide) and centrifuged at 1.4×10^4 g for 20 minutes. Supernatants were stored at −80° C. until samples were processed.
To assess the proteolytic activities of individual proteases in intestinal tissue samples, sample volumes of 1 μl (with 2 μg of protein) were separated by gel electrophoresis in SDS-PAGE gels containing 80 μg/ml gelatin. […] The molecular weights of the proteases were estimated by use of a standard protein ladder (Invitrogen). Gels were digitized and bands were analyzed by densitometry in ImageJ (rsbweb.nih.gov/ij/).
These gels were compared to a concurrently run gel processed normally.

[7] = test system: mucin 13, occludin, and E-cadherin; experiment: Immunoblots of epithelial barrier proteins in post-ischemic intestinal homogenates (segment 7); set-up: species or system rat; conditions: ileum segment 7, two hour ex vivo ischemia
Description: Immunoblotting—To determine whether selected epithelial barrier proteins were degraded during ischemia, pre- and post-ischemic intestinal tissue homogenates (segment 7) were analyzed for relative levels of mucin 13, occludin, and E-cadherin.
Tissues were homogenized for immunoblot analysis in buffer (CelLytic, Sigma-Aldrich) with protease inhibitor cocktail (HALT, Thermo Scientific, 1:100 dilution) and centrifuged (1×10^4 g, 20 min). Protein concentration in supernatants was determined (BCA, ThermoScientific). To separate proteins by gel electrophoresis, 30 μg of protein/well were loaded in 8 or 12% resolving gels with 4% stacking gels and transferred to nitrocellulose membranes (Bio-Rad, Hercules, Calif.). Membranes were blocked for one hour with either 5% bovine serum albumin (BSA) or 5% nonfat milk in tris-buffered saline with 0.5% Tween-20 (TBS-T). Primary antibodies diluted in 1% BSA or 1% nonfat milk against mucin 13 (1:1000, extracellular domain, sc-66973 Santa Cruz Biotechnology, Santa Cruz, Calif.), E-cadherin (1:1000, intracellular domain, 33-4000, Invitrogen), occludin (1:1000, intracellular domain, 33-1500, Invitrogen), pancreatic trypsin (1:1000, sc-137077 Santa Cruz Biotechnology), or β-actin (1:1000, sc-130301, Santa Cruz Biotechnology) were incubated overnight at 4° C. After incubation, membranes were washed with TBS-T (3×, 10 min) before addition of goat anti-rabbit or rabbit anti-mouse secondary antibodies (Santa Cruz Biotechnology) diluted 1:1000 in TBS-T. Following secondary antibody incubation (60 min), the membranes were washed with TBS-T (3×) and developed.

[8] = test system: MMP-9 dimers, pro-MMP-2, MMP-2, MMP-1 or MMP-3; experiment: Gelatin gel zymography of pre-ischemic intestinal homogenates renatured with inhibitor: MMP bands; type: biochemical, rat; conditions: inhibitor in renaturing and developing buffer: tranexamic acid 20 mM, doxycycline 1 mg/ml, GM-6001 1 ug/ml
Description: Gelatin Gel Zymography—Segments 2 and 7 from pre-ischemic intestines were homogenized (0.1 g tissue/ml homogenization buffer; PBS pH 7.4 with 0.5% hexadecyltrimethyl bromide) and centrifuged at 1.4×10^4 g for 20 minutes. Supernatants were stored at −80° C. until samples were processed. To assess the proteolytic activities of individual proteases in intestinal tissue samples, sample volumes of 1 μl (with 2 μg of protein) were separated by gel electrophoresis in SDS-PAGE gels containing 80 μg/ml gelatin. […] The molecular weights of the proteases were estimated by use of a standard protein ladder (Invitrogen). Gels were digitized and bands were analyzed by densitometry in ImageJ (rsbweb.nih.gov/ij/). […] These gels were compared to a concurrently run gel processed normally.

Molecule: OC[C@@H](O)[C@@H](O)[C@H](O)[C@H](O)CO [Mannitol, mannitol]
- intestinal villi structure [1]: nor preserved villi structure
- fluorescein transport across the wall of the intestine ([2]; ex vivo, treatment in lumen, two-hour ischemic period): neither prevented fluorescein penetration

Molecule: CS(=O)(=O)O.CS(=O)(=O)O.N=C(N)Nc1ccc(C(=O)Oc2ccc3cc(C(=N)N)ccc3c2)cc1 [ANGD, 6-amidino-2-naphthyl p-guanidinobenzoate dimethanesulfonate]
- serine protease (~20 kDa) band intensities ([3]; dimethanesulfonate): substantial decrease
- serine protease (~20 kDa) band intensities ([3]; listed as nafamostat mesilate, dimethanesulfonate): disappeared
- microhemorrhages in the intestine ([4]; enteral treatment in the small intestine): reduced microhemorrhages in the intestine
- MPO infiltration into the lungs ([4]; enteral, similar model of HS (Altshuler et al. 2012)): attenuate MPO infiltration into the lungs

Molecule: tosyl-lysine chloromethyl ketone [TLCK]
- serine protease (~20 kDa) band intensities [3]: substantial decrease
- serine protease (~20 kDa) band intensities ([3]; listed as tosyllysine chloromethyl ketone hydrochloride): disappeared

Molecule: C[C@H]1c2cccc(O)c2C(=O)C2=C(O)[C@]3(O)C(=O)C(C(N)=O)=C(O)[C@@H](N(C)C)[C@@H]3[C@@H](O)[C@@H]21 [doxycycline]
- plasma MMP-1/9 activity reduction [5]: 85%

Molecule: CNC(=O)[C@H](Cc1c[nH]c2ccccc12)NC(=O)[C@@H](CC(=O)NO)CC(C)C [GM 6001, N-[(2R)-2-(hydroxamidocarbonylmethyl)-4-methylpentanoyl]-L-tryptophan methylamide]
- intestinal villi structure [1]: did not prevent the villi destruction
- transmural permeability, 90-120 min period ([2]; ex vivo ischemia, inhibitor in lumen without glucose): more effective at reducing the transmural permeability compared to either doxycycline or tranexamic acid
- fluorescein transport rates, 30-60 min and 60-90 min periods ([2]; ex vivo ischemia, inhibitor in lumen without glucose, vs saline): significantly decreased compared to the saline treated intestines
- 20 kDa serine protease activity bands [6]: serine protease bands remained in all gels
- E-cadherin levels (immunoblot) [7]: neither doxycycline nor GM 6001 were effective
- mucin 13 levels (immunoblot) [7]: neither doxycycline nor GM 6001 were effective
- occludin levels (immunoblot) [7]: neither doxycycline nor GM 6001 were effective
- MMP gelatinase activity bands (220 kDa MMP-9 dimers, pro-MMP-2, MMP-2, 50 kDa band) [8]: reduced or eliminated
